Test results from patent publication US9618511B2, “Methods and compositions for treating alzheimer's disease” (Eleanore Bennett Charitable Trust #2, priority 2008, dated 2017).

What was measured:
C2C12 myotubes = assay: Extracellular peptide or insulin treatment of C2C12 myotubes, western blot of Akt signaling; assay type: cell-based, mouse
Method: The prior cell-based and in vitro experiments are relevant to […] Aβ effects. To determine the specificity of Akt inhibition by […] Aβ, C2C12 myotubes were cultured, and treated with extracellular Aβ25-35, Aβ35-25, Aβ1-42 and Aβ42-1 for 24 hours. In the last 30 minutes before harvest, insulin was added (0.1 μg/ml). While p-Akt (Ser473) and p-GSK-3 α/β levels were increased by insulin treatment (FIG. 9C, lane 2 vs. 1), they were not affected by any of the Aβ treatments. […] There were also no significant changes in p-Akt (Ser473) levels (data not shown). […] PDK itself is subject to phosphorylation (e.g., at Ser 241) and several authors feel that it is constitutively phosphorylated and thus ‘primed’ (Casamayor, A., Morrice, N. A., and Alessi, D. R., 1999, Phosphorylation of Ser-241 is essential for the activity of 3-phosphoinositide-dependent protein kinase-1: identification of five sites of phosphorylation in vivo, Biochem J 342 (Pt 2):287-292). The experiments described herein indicate that p-PDK levels are constitutively high in C2C12 cells and not boosted further by insulin action (FIG. 9E, top). p-PDK levels were not modulated by extracellular (FIG. 9E lower panel) or intracellular Aβ expression (not shown).
In FIG. 9C C2C12 myotubes were bath exposed to AP25-35, reverse AP35-25, AP1-42 and reverse Aβ42-1 peptides for 24 hours before treatment with insulin (0.1 μg/ml, 15 min) Whole cell extracts were subjected to Western analysis for p-Akt (Ser473) (Akt activation) and total Akt levels (top) as well as for endogenous levels of pGSK-3a/p, indicative of Akt activity, and total GSK-3β (lower two blots). […] The increase was not affected by pre-treatment with extracellular AR.
In FIG. 9D C2C12 myotube cultures were exposed to increasing doses of A[i1-42 (0, 10 and 25 μM) for 2 hours before treatment with insulin (0, 20, 100 and 500 ng/ml) for 15 min Harvested cell extracts were used for western blot for p-Akt (Thr308).

[1] = target: T1, c-AMP-dependent protein kinase A (PKA) (Bos taurus, UniProt P00517); assay: PKA activity assay (GSK-3 substrate phosphorylation); assay type: biochemical, bovine; settings: Aβ 10 μM, PKA 2U
T1 construct: purified c-AMP-dependent protein kinase A (PKA, Promega) from bovine heart; purchased Promega; host or cells: bovine heart (tissue-purified)
Method: Recombinant Phosphatase and Tensin Homolog (PTEN; R & D Systems, Minneapolis, Minn.), purified PP2A from human erythrocytes (Upstate, Temecula, Calif.), and purified c-AMP-dependent protein kinase A (PKA, Promega) from bovine heart were stored at −20 and used freshly. PKA inhibitor (PKI, Biosource) and PI3K inhibitor, LY294002 (Cell Signaling) were diluted to 20 or 10 μM in kinase buffer. Antibodies used were: anti-cdk4 (polyclonal), Akt, Actin (polyclonal), and IRa (polyclonal) (Santa Cruz); p-Akt (polyclonal; Ser473 and Thr308), p-GSK-3α/0 (polyclonal; Ser21/9), GSK-30 (polyclonal), IRP (monoclonal), p-Tyrosine (monoclonal), and p-PDK (polyclonal, Ser241) (Cell Signaling, Danvers, Mass.); IRS-1 (monoclonal) and PDK (monoclonal) (BD Biosciences); PI3K (polyclonal, p85) and SGK (polyclonal) (Upstate, Temecula, Calif.); Rictor (polyclonal) (Bethyl Laboratories, Montgomery, Tex.); 6E10 (monoclonal; Covance Co.); R1282 (polyclonal; gift from Dr. Selkoe's lab). Phospholipase A2 (PLA2) was from Sigma. The lipids phosphatidylinositol-tris-3,4,5-phosphate, dipalmitoyl, (PIP3) (Matreya LLC, Pleasant Gap, Pa.), and D-myo-Phosphatidylinositol (PtdIns; PI) (Echelon, Salt Lake City, Utah) were diluted into water or CHCl3:MeOH:H2O (1:2:0.8), aliquoted into 100 μg vials and stored at −20° C. […]

With “Aβ42: synthetic 42 amino acid β-amyloid peptide, forward sequence, freshly prepared, predominantly monomeric (BioSource)” the “p-PDK (Ser241) levels” value (C2C12 myotubes; extracellular 1-100 nM, 2 or 24 hours, then insulin 500 ng/ml 30 min) was “remain unaffected”, the “p-Akt (Ser473) and p-GSK-3 α/β levels after insulin” value (C2C12 myotubes; extracellular peptide 24 hours, then insulin 0.1 μg/ml) was “not affected” and the “p-Akt (Thr308) levels, insulin dose response” value (C2C12 myotubes; extracellular, up to 25 μM in the media, insulin 20, 100, 500 ng/ml) was “did not affect”. For the same substance, the “PKA phosphorylation of GSK-3 α/β substrate” value [1] was “not inhibited”.
